Reference: article PMC8635623, “A click chemistry approach to pleuromutilin derivatives, evaluation of anti-MRSA activity and elucidation of binding mode by surface plasmon resonance and molecular docking” (Journal of Enzyme Inhibition and Medicinal Chemistry, 2021)
Values after ≈ are worked out from the molar mass of the structure shown.

How the values were obtained:
Assay in all cases: MIC/MBC by broth micro dilution
MRSA ATCC 43300 = type: cell-based, methicillin-resistant S. aureus; conditions: Staphylococcus aureus; for MIC: 37 °C, 24 h, read-out: MIC; for MBC: lowest concentration reducing viable counts by 99.9%
Protocol: (§1) All the synthesised 1,2,3-triazole linked pleuromutilin analogues were screened for in vitro antibacterial activities against methicillin-resistant S. aureus (ATCC 43300), S. aureus (ATCC 29213), and two clinical strains of S. aureus (AD3 and 144, isolated from Guangdong Province, China). The MICs and MBCs of the synthesised pleuromutilin derivatives along with pleuromutilin and tiamulin used as the reference antibacterial drugs, were determined by the broth micro dilution methods according to the Clinical and Laboratory Standards Institute (CLSI)[18].
(§2) The MIC of these novel pleuromutilin derivatives against methicillin-resistant S. aureus (ATCC 43300), S. aureus (ATCC 29213), S. aureus (AD3) and S. aureus (144) were determined by using pleuromutilin and tiamulin as positive control. MIC values were determined by the broth micro dilution methods in accordance with the Clinical and Laboratory Standards Institute (2012). Stock solutions of these compounds were dissolved in methanol to make a stock solution with a concentration of 1280 µg/mL. The working solutions (640 µg/mL) were obtained by diluting stock solutions in sterile Mueller-Hinton (MH) broth. The bacterial solution and solutions of these compounds with a final concentration of 0.016–32 µg/mL were distributed into 96-well plates, with a total volume of 200 µL. Three parallel experiments for each compound concentration. The plates were incubated at 37 °C for 24 h.
(§3) MBC values were determined according to CLSI (2003) and previously report with slightly modification[18]^,[28]^,[31]. After obtaining the MIC results, the 96-well plates were incubated at 37 °C for 24 h. 100 µL of the bacterial solution from the wells with no visible growth was inoculated on MH agar plates. The MH agar plates were incubated at 37 °C for colony count. The MBC was determined as the lowest concentration of compound, which reduces the viable counts for 99.9%.

S. aureus AD3 = type: cell-based; conditions: Staphylococcus aureus, S. aureus AD3 (clinical strain); for MIC: 37 °C, 24 h; for MBC: lowest concentration reducing viable counts by 99.9%
Protocol: as §1, §2, §3

S. aureus 144 = type: cell-based; conditions: Staphylococcus aureus, S. aureus 144 (clinical strain); for MIC: 37 °C, 24 h; for MBC: lowest concentration reducing viable counts by 99.9%
Protocol: as §1, §2, §3

S. aureus ATCC 29213 = type: cell-based; conditions: Staphylococcus aureus; for MIC: ATCC29213, 37 °C, 24 h; for MBC: ATCC29213, lowest concentration reducing viable counts by 99.9%
Protocol: as §1, §2, §3

Compound	MIC (MRSA ATCC 43300) [µg/mL]	MBC (MRSA ATCC 43300) [µg/mL]	MIC (S. aureus AD3) [µg/mL]	MBC (S. aureus AD3) [µg/mL]	MIC (S. aureus 144) [µg/mL]	MBC (S. aureus 144) [µg/mL]	MIC (S. aureus ATCC 29213) [µg/mL]	MBC (S. aureus ATCC 29213) [µg/mL]
C=CC1(C)CC(OC(=O)Cn2cc(CN(C3CCCCC3)C3CCCCC3)nn2)C2(C)C(C)CCC3(CCC(=O)C32)C(C)C1O (stereo not shown) [Compound 81, 22-(2-(4-(Dicyclohexylamino)methyl)-1H-1,2,3-triazol-1-yl)-22-deoxy pleuromutilin]	4 (≈ 6.42 µM)	8 (≈ 12.8 µM)	8 (≈ 12.8 µM)	32 (≈ 51.4 µM)	8 (≈ 12.8 µM)	16 (≈ 25.7 µM)	8 (≈ 12.8 µM)	16 (≈ 25.7 µM)
C=C[C@]1(C)C[C@@H](OC(=O)Cn2cc(CN3CCN(c4cccc(Cl)c4)CC3)nn2)[C@]2(C)[C@H](C)CC[C@]3(CCC(=O)[C@H]32)[C@@H](C)[C@@H]1O [Compound 57, 22-(2-(4-(4-(3-Chlorophenyl)-piperazin-1-yl)-methyl)-1H-1,2,3-triazol-1-yl)-22-deoxy pleuromutilin]	4 (≈ 6.27 µM)	8 (≈ 12.5 µM)	16 (≈ 25.1 µM)	32 (≈ 50.1 µM)	8 (≈ 12.5 µM)	16 (≈ 25.1 µM)	8 (≈ 12.5 µM)	16 (≈ 25.1 µM)
C=C[C@]1(C)C[C@@H](OC(=O)Cn2cc(CN3CCN(c4ccc(OC)cc4)CC3)nn2)[C@]2(C)[C@H](C)CC[C@]3(CCC(=O)[C@H]32)[C@@H](C)[C@@H]1O [Compound 61, 22-(2-(4-(4-(4-Methoxyphenyl)-piperazin-1-yl)-methyl)-1H-1,2,3-triazol-1-yl)-22-deoxy pleuromutilin]	4 (≈ 6.31 µM)	16 (≈ 25.2 µM)	4 (≈ 6.31 µM)	8 (≈ 12.6 µM)	8 (≈ 12.6 µM)	16 (≈ 25.2 µM)	4 (≈ 6.31 µM)	8 (≈ 12.6 µM)
C=C[C@]1(C)C[C@@H](OC(=O)Cn2cc(CN3CCN(c4cccc(OC)c4)CC3)nn2)[C@]2(C)[C@H](C)CC[C@]3(CCC(=O)[C@H]32)[C@@H](C)[C@@H]1O [Compound 60, 22-(2-(4-(4-(3-Methoxyphenyl)-piperazin-1-yl)-methyl)-1H-1,2,3-triazol-1-yl)-22-deoxy pleuromutilin]	4 (≈ 6.31 µM)	8 (≈ 12.6 µM)	4 (≈ 6.31 µM)	16 (≈ 25.2 µM)	8 (≈ 12.6 µM)	16 (≈ 25.2 µM)	8 (≈ 12.6 µM)	8 (≈ 12.6 µM)
C=C[C@]1(C)C[C@@H](OC(=O)Cn2cc(CN3CCN(c4ccccc4)CC3)nn2)[C@]2(C)[C@H](C)CC[C@]3(CCC(=O)[C@H]32)[C@@H](C)[C@@H]1O [Compound 49, 22-(2-(4-(4-Phenyl-piperazin-1-yl)-methyl)-1H-1,2,3-triazol-1-yl)-22-deoxy pleuromutilin]	4 (≈ 6.62 µM)	4 (≈ 6.62 µM)	8 (≈ 13.2 µM)	16 (≈ 26.5 µM)	8 (≈ 13.2 µM)	16 (≈ 26.5 µM)	8 (≈ 13.2 µM)	8 (≈ 13.2 µM)
C=C[C@]1(C)C[C@@H](OC(=O)CO)[C@]2(C)[C@H](C)CC[C@]3(CCC(=O)[C@H]32)[C@@H](C)[C@@H]1O [Pleuromutilin, pleuromutilin]	2 (≈ 5.28 µM)	4 (≈ 10.6 µM)	2 (≈ 5.28 µM)	4 (≈ 10.6 µM)	2 (≈ 5.28 µM)	4 (≈ 10.6 µM)	4 (≈ 10.6 µM)	8 (≈ 21.1 µM)
C=C[C@]1(C)C[C@@H](OC(=O)Cn2cc(CN3CCN(c4ccccc4OC)CC3)nn2)[C@]2(C)[C@H](C)CC[C@]3(CCC(=O)[C@H]32)[C@@H](C)[C@@H]1O [Compound 59, 22-(2-(4-(4-(2-Methoxyphenyl)-piperazin-1-yl)-methyl)-1H-1,2,3-triazol-1-yl)-22-deoxy pleuromutilin]	4 (≈ 6.31 µM)	4 (≈ 6.31 µM)	4 (≈ 6.31 µM)	16 (≈ 25.2 µM)	8 (≈ 12.6 µM)	16 (≈ 25.2 µM)	8 (≈ 12.6 µM)	8 (≈ 12.6 µM)
C=CC1(C)CC(OC(=O)Cn2cc(CN3CCCC(CO)C3)nn2)C2(C)C(C)CCC3(CCC(=O)C32)C(C)C1O (stereo not shown) [Compound 84, 22-(2-(4-(3-(Hydroxymethyl)piperidin-1-yl)methyl)-1H-1,2,3-triazol-1-yl)-22-deoxy pleuromutilin]	8 (≈ 14.4 µM)	16 (≈ 28.7 µM)	16 (≈ 28.7 µM)	32 (≈ 57.5 µM)	32 (≈ 57.5 µM)	32 (≈ 57.5 µM)	16 (≈ 28.7 µM)	32 (≈ 57.5 µM)
C=C[C@]1(C)C[C@@H](OC(=O)Cn2cc(CN3CCN(c4cccc(F)c4)CC3)nn2)[C@]2(C)[C@H](C)CC[C@]3(CCC(=O)[C@H]32)[C@@H](C)[C@@H]1O [Compound 54, 22-(2-(4-(4-(3-Fluorophenyl)-piperazin-1-yl)-methyl)-1H-1,2,3-triazol-1-yl)-22-deoxy pleuromutilin]	4 (≈ 6.43 µM)	4 (≈ 6.43 µM)	8 (≈ 12.9 µM)	16 (≈ 25.7 µM)	8 (≈ 12.9 µM)	16 (≈ 25.7 µM)	8 (≈ 12.9 µM)	8 (≈ 12.9 µM)
C=C[C@]1(C)C[C@@H](OC(=O)Cn2cc(CN3CCN(c4ccccc4Cl)CC3)nn2)[C@]2(C)[C@H](C)CC[C@]3(CCC(=O)[C@H]32)[C@@H](C)[C@@H]1O [Compound 56, 22-(2-(4-(4-(2-Chlorophenyl)-piperazin-1-yl)-methyl)-1H-1,2,3-triazol-1-yl)-22-deoxy pleuromutilin]	4 (≈ 6.27 µM)	4 (≈ 6.27 µM)	16 (≈ 25.1 µM)	32 (≈ 50.1 µM)	16 (≈ 25.1 µM)	32 (≈ 50.1 µM)	8 (≈ 12.5 µM)	32 (≈ 50.1 µM)
C=C[C@]1(C)C[C@@H](OC(=O)Cn2cc(CN3CCN(c4ccc(C)cc4)CC3)nn2)[C@]2(C)[C@H](C)CC[C@]3(CCC(=O)[C@H]32)[C@@H](C)[C@@H]1O [Compound 52, 22-(2-(4-(4-(p-Tolyl)-piperazin-1-yl)-methyl)-1H-1,2,3-triazol-1-yl)-22-deoxy pleuromutilin]	4 (≈ 6.47 µM)	8 (≈ 12.9 µM)	8 (≈ 12.9 µM)	32 (≈ 51.8 µM)	8 (≈ 12.9 µM)	16 (≈ 25.9 µM)	8 (≈ 12.9 µM)	8 (≈ 12.9 µM)
C=CC1(C)CC(OC(=O)Cn2cc(CN3CCOCC3)nn2)C2(C)C(C)CCC3(CCC(=O)C32)C(C)C1O (stereo not shown) [Compound 82, 22-(2-(4-(Morpholinomethyl)methyl)-1H-1,2,3-triazol-1-yl)-22-deoxy pleuromutilin]	8 (≈ 15.1 µM)	8 (≈ 15.1 µM)	16 (≈ 30.3 µM)	32 (≈ 60.5 µM)	16 (≈ 30.3 µM)	32 (≈ 60.5 µM)	16 (≈ 30.3 µM)	16 (≈ 30.3 µM)
C=C[C@]1(C)C[C@@H](OC(=O)Cn2cc(CN3CCN(C)CC3)nn2)[C@]2(C)[C@H](C)CC[C@]3(CCC(=O)[C@H]32)[C@@H](C)[C@@H]1O [Compound 48, 22-(2-(4-(4-Methyl-piperazin-1-yl)-methyl)-1H-1,2,3-triazol-1-yl)-22-deoxy pleuromutilin]	8 (≈ 14.8 µM)	16 (≈ 29.5 µM)	16 (≈ 29.5 µM)	32 (≈ 59.1 µM)	32 (≈ 59.1 µM)	32 (≈ 59.1 µM)	16 (≈ 29.5 µM)	32 (≈ 59.1 µM)
C=CC1(C)CC(OC(=O)Cn2cc(CN3CCC(O)CC3)nn2)C2(C)C(C)CCC3(CCC(=O)C32)C(C)C1O (stereo not shown) [Compound 83, 22-(2-(4-(4-Hydroxypiperidin-1-yl)methyl)-1H-1,2,3-triazol-1-yl)-22-deoxy pleuromutilin]	8 (≈ 14.7 µM)	16 (≈ 29.5 µM)	16 (≈ 29.5 µM)	32 (≈ 59 µM)	32 (≈ 59 µM)	32 (≈ 59 µM)	16 (≈ 29.5 µM)	32 (≈ 59 µM)
